According to PubChem BioAssay (NCI):
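At the GI50, growth is halved. TGI denotes the concentration required for complete inhibition of growth.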

Tests used:
Test in all cases: NCI anticancer screen, dose series, 384-well format
786-0 renal = test system: 786-0 renal
A498 renal = test system: A498 renal
A549 NSCLC = test system: A549 NSCLC
ACHN renal = test system: ACHN renal
BT-549 breast = test system: BT-549 breast
CAKI-1 renal = test system: CAKI-1 renal
CCRF-CEM leukemia = test system: CCRF-CEM leukemia
COLO 205 colon = test system: COLO 205 colon
DU-145 prostate = test system: DU-145 prostate
EKVX NSCLC = test system: EKVX NSCLC
HCC-2998 colon = test system: HCC-2998 colon
HCT-116 colon = test system: HCT-116 colon
HCT-15 colon = test system: HCT-15 colon
HL-60(TB) leukemia = test system: HL-60(TB) leukemia
HOP-62 NSCLC = test system: HOP-62 NSCLC
HOP-92 NSCLC = test system: HOP-92 NSCLC
HS 578T breast = test system: HS 578T breast
HT29 colon = test system: HT29 colon
IGROV1 ovarian = test system: IGROV1 ovarian
K-562 leukemia = test system: K-562 leukemia
KM12 colon = test system: KM12 colon
M14 melanoma = test system: M14 melanoma
MALME-3M melanoma = test system: MALME-3M melanoma
MCF7 breast = test system: MCF7 breast
MDA-MB-231 breast = test system: MDA-MB-231 breast
MDA-MB-435 melanoma = test system: MDA-MB-435 melanoma
MDA-MB-468 breast = test system: MDA-MB-468 breast
MOLT-4 leukemia = test system: MOLT-4 leukemia
NCI-H226 lung = test system: NCI-H226 lung

In the case of CCn1c(=O)c(-c2ccn[nH]2)cc2c(C)nc(N)nc21, the GI50 ([…]-0 renal) is reported as 2910 nM, the TGI (786-0 renal) is reported as 15700 nM and the GI50 (A498 renal) is reported as 384 nM. For the same molecule, the TGI (A498 renal) was 1970 nM, the GI50 (A549 NSCLC) was 2270 nM and the TGI (A549 NSCLC) was 9940 nM. For the same molecule, the GI50 (ACHN renal) was 2000 nM, the TGI (ACHN renal) was 8330 nM and the GI50 (BT-549 breast) was 330 nM. It also gave a TGI (BT-549 breast) of 2760 nM, a GI50 (CAKI-1 renal) of 663 nM and a TGI (CAKI-1 renal) of 3780 nM. For the same molecule, the GI50 (CCRF-CEM leukemia) was 434 nM, the TGI (CCRF-CEM leukemia) was 2540 nM and the GI50 (COLO 205 colon) was 2240 nM. It also gave a TGI (COLO 205 colon) of 7350 nM, a GI50 (DU-145 prostate) of 3380 nM and a TGI (DU-145 prostate) of over 100000 nM. It also gave a GI50 (EKVX NSCLC) of 911 nM, a TGI (EKVX NSCLC) of 4520 nM and a GI50 (HCC-2998 colon) of 2190 nM. The TGI (HCC-2998 colon) was 13900 nM, the GI50 (HCT-116 colon) was 5310 nM and the TGI (HCT-116 colon) was over 100000 nM. For the same molecule, the GI50 (HCT-15 colon) was 2360 nM, the TGI (HCT-15 colon) was over 100000 nM and the GI50 (HL-60(TB) leukemia) was 840 nM. It also gave a TGI (HL-60(TB) leukemia) of 7000 nM, a GI50 (HOP-62 NSCLC) of 1930 nM and a TGI (HOP-62 NSCLC) of 11600 nM. For the same molecule, the GI50 (HOP-92 NSCLC) was 201 nM, the TGI (HOP-92 NSCLC) was 1310 nM and the GI50 (HS 578T breast) was 310 nM. The TGI (HS 578T breast) was 1660 nM, the GI50 (HT29 colon) was 2420 nM and the TGI (HT29 colon) was over 69500 nM. It also gave a GI50 (IGROV1 ovarian) of 333 nM, a TGI (IGROV1 ovarian) of 1210 nM and a GI50 (K-562 leukemia) of 6580 nM. It also gave a TGI (K-562 leukemia) of over 100000 nM, a GI50 (KM12 colon) of 3390 nM and a TGI (KM12 colon) of 38600 nM. For the same molecule, the GI50 (M14 melanoma) was 2200 nM, the TGI (M14 melanoma) was over 27400 nM and the GI50 (MALME-3M melanoma) was 456 nM. For the same molecule, the TGI (MALME-3M melanoma) was 2030 nM, the GI50 (MCF7 breast) was 511 nM and the TGI (MCF7 breast) was over 100000 nM. The GI50 (MDA-MB-231 breast) was 955 nM, the TGI (MDA-MB-231 breast) was over 23800 nM and the GI50 (MDA-MB-435 melanoma) was 2710 nM. For the same molecule, the TGI (MDA-MB-435 melanoma) was 19700 nM, the GI50 (MDA-MB-468 breast) was 358 nM and the TGI (MDA-MB-468 breast) was 1570 nM. For the same molecule, the GI50 (MOLT-4 leukemia) was 587 nM, the TGI (MOLT-4 leukemia) was 2160 nM and the GI50 (NCI-H226 lung) was 1330 nM. The TGI (NCI-H226 lung) was 5510 nM.
